# According to ChEMBL document CHEMBL1201862, “PubChem BioAssay data set” (2004):
#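 96-well plates; 48 h exposure; 5 concentrations. Endpoints by linear interpolation between flanking doses. Not reached: highest tested concentration assigned. At the GI50, growth is halved.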 The source made the active and inactive calls. Cut-off read from the data, not from the text of the source: active = GI50 up to about 1.1 µM and inactive = higher.
# Legend:
# Test in all cases: growth of human tumour cells (NCI), 48 h
# UACC-257 = system: UACC-257
# KM-20L2 = system: KM-20L2
# COLO 205 = system: COLO 205
# HOP-62 = system: HOP-62
# OVCAR-8 = system: OVCAR-8
# XF498 = system: XF498
# ACHN = system: ACHN
# NCI-H522 = system: NCI-H522
# K562 = system: K562
# HCT-116 = system: HCT-116
# NCI-H460 = system: NCI-H460
# DMS-273 = system: DMS-273
# HT-29 = system: HT-29
# OVCAR-3 = system: OVCAR-3
# CCRF-CEM = system: CCRF-CEM
# UO-31 = system: UO-31
# UACC-62 = system: UACC-62
# DLD-1 = system: DLD-1
# KM12 = system: KM12
# DMS-114 = system: DMS-114
# HCT-15 = system: HCT-15
# SK-MEL-5 = system: SK-MEL-5
# NCI-H23 = system: NCI-H23
# SF-268 = system: SF-268
# Malme-3M = system: Malme-3M
# M19-MEL = system: M19-MEL
# CAKI-1 = system: CAKI-1
# A549 = system: A549
# OVCAR-4 = system: OVCAR-4
# SNB-78 = system: SNB-78
# 786-0 = system: 786-0
# NCI-H226 = system: NCI-H226
# MOLT-4 = system: MOLT-4
# SK-MEL-28 = system: SK-MEL-28
# U-251 = system: U-251
# SK-MEL-2 = system: SK-MEL-2
# HCC 2998 = system: HCC 2998
# SNB-75 = system: SNB-75
# SF-539 = system: SF-539
# SN12C = system: SN12C
# SNB-19 = system: SNB-19
# SF-295 = system: SF-295
# M14 = system: M14
# EKVX = system: EKVX
# OVCAR-5 = system: OVCAR-5
# RPMI-8226 = system: RPMI-8226
# SK-OV-3 = system: SK-OV-3
# SR = system: SR
# RXF 393 = system: RXF 393
# LXFL 529 = system: LXFL 529
# A498 = system: A498
# LOX IMVI = system: LOX IMVI
# TK-10 = system: TK-10
# SW-620 = system: SW-620
# HL-60 = system: HL-60
smiles,measurement,setting,value
Cc1c2n(c3ccccc13)CC1C2N(C)OC1(C)C (configuration not stated),GI50,UACC-257,> 100 µM (inactive)
same,GI50,KM-20L2,> 100 µM (inactive)
same,GI50,COLO 205,> 100 µM (inactive)
same,GI50,HOP-62,83.8 µM (inactive)
same,GI50,OVCAR-8,> 100 µM (inactive)
same,GI50,XF498,> 100 µM (inactive)
same,GI50,ACHN,> 100 µM (inactive)
same,GI50,NCI-H522,> 100 µM (inactive)
same,GI50,K562,> 100 µM (inactive)
same,GI50,HCT-116,> 100 µM (inactive)
same,GI50,NCI-H460,> 100 µM (inactive)
same,GI50,DMS-273,> 100 µM (inactive)
same,GI50,HT-29,> 100 µM (inactive)
same,GI50,OVCAR-3,> 100 µM (inactive)
same,GI50,CCRF-CEM,> 100 µM (inactive)
same,GI50,UO-31,86.7 µM (inactive)
same,GI50,UACC-62,> 100 µM (inactive)
same,GI50,DLD-1,> 100 µM (inactive)
same,GI50,KM12,> 100 µM (inactive)
same,GI50,DMS-114,> 100 µM (inactive)
same,GI50,HCT-15,> 100 µM
same,GI50,SK-MEL-5,> 100 µM (inactive)
same,GI50,NCI-H23,> 100 µM (inactive)
same,GI50,SF-268,> 100 µM (inactive)
same,GI50,Malme-3M,> 100 µM (inactive)
same,GI50,M19-MEL,> 100 µM (inactive)
same,GI50,CAKI-1,> 100 µM (inactive)
same,GI50,A549,> 100 µM (inactive)
same,GI50,OVCAR-4,> 100 µM (inactive)
same,GI50,SNB-78,> 100 µM (inactive)
same,GI50,786-0,> 100 µM (inactive)
same,GI50,NCI-H226,> 100 µM (inactive)
same,GI50,MOLT-4,> 100 µM (inactive)
same,GI50,SK-MEL-28,> 100 µM (inactive)
same,GI50,U-251,> 10 µM (inactive)
same,GI50,SK-MEL-2,> 100 µM (inactive)
same,GI50,HCC 2998,> 100 µM (inactive)
same,GI50,SNB-75,81.5 µM (inactive)
same,GI50,SF-539,> 100 µM (inactive)
same,GI50,SN12C,> 100 µM (inactive)
same,GI50,SNB-19,> 100 µM (inactive)
same,GI50,SF-295,> 100 µM (inactive)
same,GI50,M14,> 100 µM (inactive)
same,GI50,EKVX,> 100 µM (inactive)
same,GI50,OVCAR-5,> 100 µM (inactive)
same,GI50,RPMI-8226,> 100 µM (inactive)
same,GI50,SK-OV-3,> 100 µM (inactive)
same,GI50,SR,> 100 µM (inactive)
Cc1cc(NS(=O)(=O)c2ccc(NC(=O)c3ccc(Cl)c4c(Nc5ccc(S(=O)(=O)N=C(N)N)cc5)c5ccccc5nc34)cc2)no1,GI50,UACC-257,> 100 µM (inactive)
same,GI50,KM-20L2,> 100 µM (inactive)
same,GI50,HOP-62,21.6 µM (inactive)
same,GI50,OVCAR-8,38.2 µM (inactive)
same,GI50,XF498,17.6 µM (inactive)
same,GI50,ACHN,> 100 µM (inactive)
same,GI50,NCI-H522,20 µM (inactive)
same,GI50,K562,39 µM (inactive)
same,GI50,HCT-116,36 µM (inactive)
same,GI50,NCI-H460,> 100 µM (inactive)
same,GI50,RXF 393,19.2 µM (inactive)
same,GI50,HT-29,45.8 µM (inactive)
same,GI50,OVCAR-3,27 µM (inactive)
same,GI50,CCRF-CEM,28.3 µM (inactive)
same,GI50,UO-31,> 100 µM (inactive)
same,GI50,LXFL 529,31.8 µM (inactive)
same,GI50,UACC-62,44.3 µM (inactive)
same,GI50,DLD-1,> 100 µM (inactive)
same,GI50,KM12,40.6 µM (inactive)
same,GI50,DMS-114,62.4 µM (inactive)
same,GI50,HCT-15,> 100 µM
same,GI50,NCI-H23,> 100 µM (inactive)
same,GI50,SF-268,42.3 µM (inactive)
same,GI50,Malme-3M,> 100 µM (inactive)
same,GI50,M19-MEL,46.8 µM (inactive)
same,GI50,OVCAR-4,68.5 µM (inactive)
same,GI50,A498,> 100 µM (inactive)
same,GI50,SNB-78,41.9 µM (inactive)
same,GI50,786-0,45.6 µM (inactive)
same,GI50,MOLT-4,15.2 µM (inactive)
same,GI50,LOX IMVI,28.1 µM (inactive)
same,GI50,SK-MEL-28,87.5 µM (inactive)
same,GI50,U-251,18 µM (inactive)
same,GI50,HCC 2998,22.3 µM (inactive)
same,GI50,SNB-75,29.7 µM (inactive)
same,GI50,SF-539,30.5 µM (inactive)
same,GI50,SN12C,32.3 µM (inactive)
same,GI50,SNB-19,39.7 µM (inactive)
same,GI50,SF-295,> 100 µM (inactive)
same,GI50,M14,> 100 µM (inactive)
same,GI50,EKVX,95.1 µM (inactive)
same,GI50,TK-10,> 100 µM (inactive)
same,GI50,OVCAR-5,> 100 µM (inactive)
same,GI50,RPMI-8226,59.7 µM (inactive)
same,GI50,SK-OV-3,> 100 µM (inactive)
same,GI50,SR,27.6 µM (inactive)
COc1cc(N)c2[nH]c3c(C)ccc(C)c3c2c1,GI50,UACC-257,> 100 µM (inactive)
same,GI50,COLO 205,> 100 µM (inactive)
same,GI50,HOP-62,> 100 µM (inactive)
same,GI50,OVCAR-8,> 100 µM (inactive)
same,GI50,XF498,> 100 µM (inactive)
same,GI50,ACHN,> 100 µM (inactive)
same,GI50,NCI-H522,> 100 µM (inactive)
same,GI50,K562,> 100 µM (inactive)
same,GI50,HCT-116,> 100 µM (inactive)
same,GI50,NCI-H460,> 100 µM (inactive)
same,GI50,DMS-273,> 100 µM (inactive)
same,GI50,SW-620,> 100 µM (inactive)
same,GI50,HT-29,> 100 µM (inactive)
same,GI50,OVCAR-3,> 100 µM (inactive)
same,GI50,CCRF-CEM,> 100 µM (inactive)
same,GI50,UO-31,> 100 µM (inactive)
same,GI50,DLD-1,> 100 µM (inactive)
same,GI50,KM12,> 100 µM (inactive)
same,GI50,DMS-114,> 100 µM (inactive)
same,GI50,HCT-15,> 100 µM
same,GI50,SK-MEL-5,> 100 µM (inactive)
same,GI50,NCI-H23,> 10 µM (inactive)
same,GI50,SF-268,> 100 µM (inactive)
same,GI50,Malme-3M,> 100 µM (inactive)
same,GI50,M19-MEL,> 100 µM (inactive)
same,GI50,CAKI-1,> 100 µM (inactive)
same,GI50,A549,> 100 µM (inactive)
same,GI50,OVCAR-4,> 100 µM (inactive)
same,GI50,SNB-78,> 100 µM (inactive)
same,GI50,786-0,> 100 µM (inactive)
same,GI50,NCI-H226,> 100 µM (inactive)
same,GI50,MOLT-4,> 100 µM (inactive)
same,GI50,LOX IMVI,> 100 µM (inactive)
same,GI50,SK-MEL-28,> 100 µM (inactive)
same,GI50,SK-MEL-2,> 100 µM (inactive)
same,GI50,HCC 2998,> 100 µM (inactive)
same,GI50,HL-60,> 100 µM (inactive)
same,GI50,SNB-75,> 100 µM (inactive)
same,GI50,SF-539,> 100 µM (inactive)
same,GI50,SN12C,> 100 µM (inactive)
same,GI50,SNB-19,> 100 µM (inactive)
same,GI50,SF-295,> 100 µM (inactive)
same,GI50,M14,> 100 µM (inactive)
same,GI50,EKVX,> 100 µM (inactive)
same,GI50,TK-10,> 100 µM (inactive)
same,GI50,OVCAR-5,> 100 µM (inactive)
same,GI50,RPMI-8226,> 100 µM (inactive)
same,GI50,SR,> 100 µM (inactive)
